This data set deals with rodent lifetime carcinogenesis bioassay, tumor incidence TD50. As to the kind of experiment: chronic cancer bioassays in animals – CPDB, compiled studies (AID 1745844).

Where “and” joins values, the source holds several entries; their conditions need not be identical. Equal values may be shown once. Calls of active or inactive are those of the source. The rule behind the calls is not given here.

The TD50 is the dose at which the toxic effect under study appears in half of the subjects. On to `CC(=O)OC[C@H]1O[C@@](COC(=O)C(C)C)(O[C@H]2O[C@H](COC(C)=O)[C@@H](OC(=O)C(C)C)[C@H](OC(=O)C(C)C)[C@H]2OC(=O)C(C)C)[C@@H](OC(=O)C(C)C)[C@@H]1OC(=O)C(C)C`, for which the carcinogen call was “negative (inactive)” (mouse, strain B6C3F1, females, in feed, site: any site (literature study), lesion: several types, types named in the paper, dosed 104 weeks, study length 104 weeks); “negative (inactive)” (mouse, strain B6C3F1, males, in feed, site: any site (literature study), lesion: several types, types named in the paper, dosed 104 weeks, study length 104 weeks); “negative (inactive)” (rat, strain Fischer 344, females, in feed, site: any site (literature study), lesion: several types, types named in the paper, dosed 104 weeks, study length 104 weeks); “negative (inactive)” (rat, strain Fischer 344, males, in feed, site: any site (literature study), lesion: several types, types named in the paper, dosed 52 weeks, study length 52 weeks); “negative (inactive)” (rat, strain Fischer 344, males, in feed, site: any site (literature study), lesion: several types, types named in the paper, dosed 104 weeks, study length 104 weeks); “negative (inactive)” (rat, strain Fischer 344, males, in feed, site: liver, lesion: one or several types, types not named, dosed 52 weeks, study length 52 weeks). Moreover, the TD50 was 3250 mg/kg/day (inactive) (rat, strain Fischer 344, females, in feed, site: any site (literature study), lesion: several types, types named in the paper, dosed 52 weeks, study length 52 weeks) and 3250 mg/kg/day (inactive) (rat, strain Fischer 344, females, in feed, site: liver, lesion: hepatocellular adenoma, dosed 52 weeks, study length 52 weeks).
`CCCCCCCN`: the carcinogen call (rat, strain Wistar, males, in drinking water, site: any site (literature study), lesion: several types, types named in the paper, dosed 61 weeks, study length 61 weeks) is “negative (inactive)”.
On to `COP(=O)(OC)OC(=CCl)c1cc(Cl)c(Cl)cc1Cl`, for which the TD50 was 7880 mg/kg/day (mouse, strain B6C3F1, females, in feed, site: any site (literature study), lesion: several types, types named in the paper, dosed 80 weeks, study length 92 weeks); 32100 mg/kg/day (mouse, strain B6C3F1, females, in feed, site: kidney, lesion: several types, types named in the paper, dosed 103 weeks, study length 103 weeks); 905 mg/kg/day (mouse, strain B6C3F1, females, in feed, site: liver, lesion: hepatocellular adenoma + hepatocellular carcinoma + neoplastic nodule, dosed 80 weeks, study length 92 weeks); 1070 mg/kg/day (mouse, strain B6C3F1, females, in feed, site: liver, lesion: hepatocellular carcinoma + neoplastic nodule, dosed 80 weeks, study length 90 weeks); 905 mg/kg/day (mouse, strain B6C3F1, females, in feed, site: liver, lesion: hepatocellular carcinoma + neoplastic nodule, dosed 80 weeks, study length 92 weeks); 12400 mg/kg/day and 8990 mg/kg/day (mouse, strain B6C3F1, females, in feed, site: liver, lesion: hepatocellular carcinoma, dosed 103 weeks, study length 103 weeks). Also, the TD50 runs as follows: (mouse, strain B6C3F1, females, in feed, site: liver, lesion: neoplastic nodule, dosed 80 weeks, study length 90 weeks) 1380 mg/kg/day; (mouse, strain B6C3F1, females, in feed, site: liver, lesion: several types, types named in the paper, dosed 103 weeks, study length 103 weeks) 10200 mg/kg/day and 6330 mg/kg/day; (mouse, strain B6C3F1, females, in feed, site: lung, lesion: alveolar/bronchiolar adenoma + alveolar/bronchiolar carcinoma, dosed 80 weeks, study length 92 weeks) 7790 mg/kg/day; (mouse, strain B6C3F1, males, in feed, site: any site (literature study), lesion: several types, types named in the paper, dosed 80 weeks, study length 92 weeks) 295 mg/kg/day; (mouse, strain B6C3F1, males, in feed, site: kidney, lesion: several types, types named in the paper, dosed 103 weeks, study length 103 weeks) 4420 mg/kg/day; (mouse, strain B6C3F1, males, in feed, site: kidney, lesion: tubular adenoma, dosed 103 weeks, study length 103 weeks) 37600 mg/kg/day. In addition, the TD50 is, setting by setting: (mouse, strain B6C3F1, males, in feed, site: kidney, lesion: tubular carcinoma, dosed 103 weeks, study length 103 weeks) 5260 mg/kg/day; (mouse, strain B6C3F1, males, in feed, site: liver, lesion: hepatocellular adenoma + hepatocellular carcinoma + neoplastic nodule, dosed 80 weeks, study length 92 weeks) 228 mg/kg/day; (mouse, strain B6C3F1, males, in feed, site: liver, lesion: hepatocellular adenoma, dosed 103 weeks, study length 103 weeks) 18300 mg/kg/day; (mouse, strain B6C3F1, males, in feed, site: liver, lesion: hepatocellular carcinoma + neoplastic nodule, dosed 80 weeks, study length 90 weeks) 280 mg/kg/day; (mouse, strain B6C3F1, males, in feed, site: liver, lesion: hepatocellular carcinoma + neoplastic nodule, dosed 80 weeks, study length 92 weeks) 228 mg/kg/day; (mouse, strain B6C3F1, males, in feed, site: liver, lesion: hepatocellular carcinoma, dosed 80 weeks, study length 90 weeks) 534 mg/kg/day. Besides, the TD50 (mouse, strain B6C3F1, males, in feed, site: liver, lesion: hepatocellular carcinoma, dosed 80 weeks, study length 92 weeks) was 466 mg/kg/day; the TD50 (mouse, strain B6C3F1, males, in feed, site: liver, lesion: hepatocellular carcinoma, dosed 103 weeks, study length 103 weeks) amounted to 1530 mg/kg/day; the TD50 (mouse, strain B6C3F1, males, in feed, site: liver, lesion: neoplastic nodule, dosed 80 weeks, study length 90 weeks) is 1770 mg/kg/day; the TD50 (mouse, strain B6C3F1, males, in feed, site: liver, lesion: several types, types named in the paper, dosed 103 weeks, study length 103 weeks) is 1150 mg/kg/day; the TD50 (mouse, strain B6C3F1, males, in feed, site: lung, lesion: alveolar/bronchiolar adenoma + alveolar/bronchiolar carcinoma, dosed 80 weeks, study length 92 weeks) stood at 401000 mg/kg/day; the TD50 (rat, strain Osborne-Mendel, females, in feed, site: adrenal gland, lesion: cortical adenoma, dosed 80 weeks, study length 109 weeks) was 2280 mg/kg/day. The TD50 (rat, strain Osborne-Mendel, females, in feed, site: pituitary gland, lesion: chromophobe adenoma, dosed 80 weeks, study length 111 weeks) is 1580 mg/kg/day (inactive) and the TD50 (rat, strain Osborne-Mendel, females, in feed, site: thyroid gland, lesion: c-cell adenoma, dosed 80 weeks, study length 109 weeks) is 1920 mg/kg/day. Also, for the setting “rat, strain Osborne-Mendel, males, in feed, site: any site (literature study), lesion: several types, types named in the paper, dosed 80 weeks, study length 111 weeks”, the carcinogen call was “negative (inactive)”.
As for `CCCC/C=N/N(C)C=O`, the TD50 was 11.8 mg/kg/day (mouse, strain Swiss albino, females, by gavage, site: liver, lesion: hepatoma, benign, dosed 52 weeks, study length 144 weeks); 9.29 mg/kg/day (mouse, strain Swiss albino, females, by gavage, site: lung, lesion: adenocarcinoma, dosed 52 weeks, study length 144 weeks); 5.64 mg/kg/day (mouse, strain Swiss albino, females, by gavage, site: lung, lesion: adenoma, dosed 52 weeks, study length 144 weeks); 3.12 mg/kg/day (mouse, strain Swiss albino, females, by gavage, site: lung, lesion: several types, types named in the paper, dosed 52 weeks, study length 144 weeks); 33.1 mg/kg/day (mouse, strain Swiss albino, males, by gavage, site: liver, lesion: hepatoma, dosed 52 weeks, study length 134 weeks); 11 mg/kg/day (mouse, strain Swiss albino, males, by gavage, site: lung, lesion: adenocarcinoma, dosed 52 weeks, study length 134 weeks). For the same molecule, the TD50 is 5.52 mg/kg/day (mouse, strain Swiss albino, males, by gavage, site: lung, lesion: adenoma, dosed 52 weeks, study length 134 weeks); 3.79 mg/kg/day (mouse, strain Swiss albino, males, by gavage, site: lung, lesion: several types, types named in the paper, dosed 52 weeks, study length 134 weeks); 16.2 mg/kg/day (mouse, strain Swiss albino, males, by gavage, site: preputial gland, lesion: several types, types named in the paper, dosed 52 weeks, study length 134 weeks); 19.8 mg/kg/day (mouse, strain Swiss albino, males, by gavage, site: preputial gland, lesion: squamous-cell carcinoma, dosed 52 weeks, study length 134 weeks); 106 mg/kg/day (mouse, strain Swiss albino, males, by gavage, site: preputial gland, lesion: squamous-cell papilloma, dosed 52 weeks, study length 134 weeks).
Consider `ClC(Cl)(Cl)C(Cl)(Cl)Cl`, for which the TD50 was 1190 mg/kg/day (mouse, strain B6C3F1, females, by gavage, site: any site (literature study), lesion: several types, types named in the paper, dosed 78 weeks, study length 90 weeks); 873 mg/kg/day (mouse, strain B6C3F1, females, by gavage, site: liver, lesion: hepatocellular adenoma + hepatocellular carcinoma + neoplastic nodule, dosed 78 weeks, study length 90 weeks); 873 mg/kg/day and 319 mg/kg/day (mouse, strain B6C3F1, females, by gavage, site: liver, lesion: hepatocellular carcinoma, dosed 78 weeks, study length 90 weeks); 6950 mg/kg/day (mouse, strain B6C3F1, females, by gavage, site: lung, lesion: alveolar/bronchiolar adenoma + alveolar/bronchiolar carcinoma, dosed 78 weeks, study length 90 weeks); 675 mg/kg/day (mouse, strain B6C3F1, males, by gavage, site: any site (literature study), lesion: several types, types named in the paper, dosed 78 weeks, study length 90 weeks); 585 mg/kg/day (mouse, strain B6C3F1, males, by gavage, site: liver, lesion: hepatocellular adenoma + hepatocellular carcinoma + neoplastic nodule, dosed 78 weeks, study length 90 weeks). Further, the TD50 reads like this: (mouse, strain B6C3F1, males, by gavage, site: liver, lesion: hepatocellular carcinoma, dosed 78 weeks, study length 90 weeks) 585 mg/kg/day and 359 mg/kg/day; (mouse, strain B6C3F1, males, by gavage, site: lung, lesion: alveolar/bronchiolar adenoma + alveolar/bronchiolar carcinoma, dosed 78 weeks, study length 90 weeks) 23600 mg/kg/day; (rat, strain Fischer 344, females, by gavage, site: liver, lesion: hepatocellular adenoma + hepatocellular carcinoma + neoplastic nodule, dosed 103 weeks, study length 105 weeks) 276000 mg/kg/day; (rat, strain Fischer 344, males, by gavage, site: adrenal gland + adrenal medulla, lesion: pheochromocytoma, benign + pheochromocytoma benign, bilateral + pheochromocytoma, complex + pheochromocytoma, malignant, dosed 103 weeks, study length 105 weeks) 8.02 mg/kg/day; (rat, strain Fischer 344, males, by gavage, site: adrenal gland + adrenal medulla, lesion: pheochromocytoma, benign + pheochromocytoma benign, bilateral, dosed 103 weeks, study length 105 weeks) 9.05 mg/kg/day; (rat, strain Fischer 344, males, by gavage, site: any site (literature study), lesion: several types, types named in the paper, dosed 103 weeks, study length 105 weeks) 28 mg/kg/day. Also, the TD50 runs as follows: (rat, strain Fischer 344, males, by gavage, site: kidney, lesion: adenoma + tubule adenoma + tubule carcinoma, dosed 103 weeks, study length 105 weeks) 55.4 mg/kg/day; (rat, strain Fischer 344, males, by gavage, site: kidney, lesion: tubule carcinoma, dosed 103 weeks, study length 105 weeks) 159 mg/kg/day; (rat, strain Fischer 344, males, by gavage, site: liver, lesion: hepatocellular adenoma + hepatocellular carcinoma + neoplastic nodule, dosed 103 weeks, study length 105 weeks) 1340 mg/kg/day. In addition, the carcinogen call was “negative (inactive)” (rat, strain Fischer 344, females, by gavage, site: any site (literature study), lesion: several types, types named in the paper, dosed 103 weeks, study length 105 weeks); “negative (inactive)” (rat, strain Osborne-Mendel, females, by gavage, site: any site (literature study), lesion: several types, types named in the paper, dosed 78 weeks, study length 111 weeks); “negative (inactive)” (rat, strain Osborne-Mendel, males, by gavage, site: any site (literature study), lesion: several types, types named in the paper, dosed 78 weeks, study length 111 weeks).
`N[C@@H](Cc1cnc[nH]1)C(=O)O`: where the note is “rat, strain F344/DuCrj, females, in feed, site: liver, lesion: hepatocellular adenoma, dosed 104 weeks, study length 107 weeks”, the carcinogen call is “negative (inactive)”. In addition, for the setting “rat, strain F344/DuCrj, males, in feed, site: liver, lesion: hepatocellular adenoma, dosed 104 weeks, study length 107 weeks”, the TD50 is 52200 mg/kg/day (inactive).
